One assay concerns the target BRD4 protein (Homo sapiens (Human), UniProt O60885). As to the kind of experiment: BRD4 protein degradation inducing action in cancer cells (immunofluorescence, Operetta). The format is cell-based. The settings on record: LNCaP cells, 6 hr treatment, fluorescence intensity. The method in brief:
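LNCaP prostate cancer cells in 10% FBS/RPMI1640 were exposed to compound for 6 hr at 37° C, then fixed, permeabilized and immunostained for BRD4 with Alexa Fluor 488 or 546 secondary antibodies plus Hoechst nuclear stain. Fluorescence was read by high-content imaging; DC50 is the concentration giving 50% of untreated signal, interpolated linearly between bracketing points.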

The subject of assay [1] is human acute myeloid leukemia MV-4-11 cell transplanted mouse. Briefly: Antitumor effect in human acute myeloid leukemia MV-4-11 cell transplanted mouse. The format is in vivo. The settings on record: MV4-11, iv, 360 h. As to the method:
The in vivo antitumor effect of the compound of the present invention was studied using human acute myeloid leukemia MV-4-11 cell transplanted mouse. MV-4-11 cells were subcutaneously transplanted into the inguinal region of male, 6-week-old BALB/c nude mouse (5×10^6 cells/mouse). The compound of the present invention was administered into the tail vein on days 1, 5, 9, 13 from the time point when the assumed tumor volume determined from 1/2ab^2 (a is major axis and b is minor axis of tumor) reached about 100 mm^3 (day 1). The control group was administered with a solvent, 10% hydroxypropyl-β-cyclodextrin solution. On day 15, the tumor was isolated, the weight was measured, and the tumor growth inhibitory rate IR (%) was calculated by the following formula. tumor growth inhibitory rate IR (%)=(1−tumor weight of administration group/tumor weight of nonadministration control group)×100

Assay [2] deals with human prostate cancer LNCaP cells. Briefly: Cytotoxic action on cancer cells (WST-8, 96 hr). The format is cell-based. The settings on record: Homo sapiens, LNCaP, 96 h, read-out: LNCaP cytotoxic activity: IC50. In a few lines:
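Seed cells in 10% FBS/RPMI1640 and culture overnight (37° C, 5% CO2). Add test compound (DMSO stock diluted in medium). Culture further, then read viable cell number by WST-8. Derive IC50 from the straight line between survival points enclosing 50%.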

[3] abbreviates: read-out: tumor growth inhibitory rate.

Data on 8 molecules can be found in patent US11542273B2, “Amide compound having bet proteolysis-inducing action and medicinal application thereof” (MITSUBISHI TANABE PHARMA CORPORATION, priority 2018, dated 2023).

Where two headings read alike, the source gives them in different places.

As a reminder, the DC50 is the concentration giving 50% degradation. One may read the IC50 as the concentration needed to halve the response being measured. With `COC(=O)C[C@@H]1N=C(c2ccc(N3CC[C@@H](C(=O)NCCOc4ccc5oc(C(=O)N[C@H](C(=O)N6C[C@H](O)C[C@H]6C(=O)N[C@@H](C)c6ccc(-c7scnc7C)cc6)C(C)(C)C)cc5c4)C3)cc2)c2c(sc(C)c2C)-n2c(C)nnc21` [Example 67, methyl [(6S)-4-(4-{(3R)-3-[(2-{[2-({(2S)-1-[(2S,4R)-4-hydroxy-2-({(1S)-1-[4-(4-methyl-1,3-thiazol-5-yl)phenyl]ethyl}carbamoyl)pyrrolidin-1-yl]-3,3-dimethyl-1-oxobutan-2-yl}carbamoyl]-1-benzofuran-5-yl]oxy}ethyl)carbamoyl]pyrrolidin-1-yl}phenyl)-2,3,9-trimethyl-6H-thieno[3,2-f][1,2,4]triazolo[4,3-a][1,4]diazepin-6-yl]acetate], half-maximal degradation on BRD4 protein (DC50) was put at 0.55 nM. Moreover, the inhibition in vivo at 3 mg/kg in assay [1] (dose 3 mg/kg/day, tail vein on days 1, 5, 9, 13, tumor weight on day 15, read-out: tumor growth inhibitory rate) is 97.7%. Further, the IC50 in assay [2] came out at 0.47 nM.
`COC(=O)C[C@@H]1N=C(c2ccc(-c3ccc(OCC(=O)N[C@H](C(=O)N4C[C@H](O)C[C@H]4C(=O)NCc4ccc(-c5scnc5C)cc4)C(C)(C)C)cc3)cc2)c2c(sc(C)c2C)-n2c(C)nnc21` [Example 61, methyl [(6S)-4-{4′-[2-({(25)-1-[(2S,4R)-4-hydroxy-2-({[4-(4-methyl-1,3-thiazol-5-yl)phenyl]methyl}carbamoyl)pyrrolidin-1-yl]-3,3-dimethyl-1-oxobutan-2-yl}amino)-2-oxoethoxy][1,1′-biphenyl]-4-yl}-2,3,9-trimethyl-6H-thieno[3,2-f][1,2,4]triazolo[4,3-a][1,4]diazepin-6-yl]acetate]: the 50% degradation concentration (DC50) at BRD4 protein was 0.81 nM. Moreover, the inhibition in vivo at 3 mg/kg in assay [1] (setting [3]) came to 97.2%. For the same molecule, the IC50 in assay [2] is 0.17 nM.
The molecule `COC(=O)C[C@@H]1N=C(c2ccc(-c3ccc(C(=O)N[C@H](C(=O)N4C[C@H](O)C[C@H]4C(=O)N[C@@H](C)c4ccc(-c5scnc5C)cc4)C(C)(C)C)c(F)c3)cc2)c2c(sc(C)c2C)-n2c(C)nnc21` [Example 94, methyl {(6S)-4-[3′-fluoro-4′-({(2S)-1-[(2S,4R)-4-hydroxy-2-({(1S)-1-[4-(4-methyl-1,3-thiazol-5-yl)phenyl]ethyl}carbamoyl)pyrrolidin-1-yl]-3,3-dimethyl-1-oxobutan-2-yl}carbamoyl)[1,1′-biphenyl]-4-yl]-2,3,9-trimethyl-6H-thieno[3,2-f][1,2,4]triazolo[4,3-a][1,4]diazepin-6-yl}acetate] displayed a DC50 on BRD4 protein of 0.64 nM. Also, the inhibition in vivo at 3 mg/kg in assay [1] (setting [3]) worked out at 98.2%. For the same molecule, the IC50 in assay [2] was 0.29 nM.
On BRD4 protein, `COC(=O)C[C@@H]1N=C(c2ccc(-c3ccc(C(=O)N[C@H](C(=O)N4C[C@H](O)C[C@H]4C(=O)N[C@@H](C)c4ccc(-c5scnc5C)cc4)C(C)(C)C)cc3F)cc2)c2c(sc(C)c2C)-n2c(C)nnc21` [Example 62, methyl {(6S)-4-[2′-fluoro-4′-({(2S)-1-[(2S,4R)-4-hydroxy-2-({(1S)-1-[4-(4-methyl-1,3-thiazol-5-yl)phenyl]ethyl}carbamoyl)pyrrolidin-1-yl]-3,3-dimethyl-1-oxobutan-2-yl}carbamoyl) [1,1′-biphenyl]-4-yl]-2,3,9-trimethyl-6H-thieno[3,2-f][1,2,4]triazolo[4,3-a][1,4]diazepin-6-yl}acetate] showed a DC50 of 0.24 nM. In assay [1] (setting [3]), the inhibition in vivo at 0.3 mg/kg came to 95.6% and the inhibition in vivo at 3 mg/kg was 97.4%. Besides, in assay [2], the concentration for half-maximal inhibition (IC50) is 0.26 nM.
The molecule `COC(=O)C[C@@H]1N=C(c2ccc(N3CC[C@H](C(=O)Nc4ccc5oc(C(=O)N[C@H](C(=O)N6C[C@H](O)C[C@H]6C(=O)N[C@@H](C)c6ccc(-c7scnc7C)cc6)C(C)(C)C)cc5c4)C3)cc2)c2c(sc(C)c2C)-n2c(C)nnc21` [Example 138, methyl [(6S)-4-{4-[(3S)-3-{[2-({(2S)-1-[(2S,4R)-4-hydroxy-2-({(1S)-1-[4-(4-methyl-1,3-thiazol-5-yl)phenyl]ethyl}carbamoyl)pyrrolidin-1-yl]-3,3-dimethyl-1-oxobutan-2-yl}carbamoyl)-1-benzofuran-5-yl]carbamoyl}pyrrolidin-1-yl]phenyl}-2,3,9-trimethyl-6H-thieno[3,2-f][1,2,4]triazolo[4,3-a][1,4]diazepin-6-yl]acetate] displayed a DC50 on BRD4 protein of 0.62 nM. In assay [1] (setting [3]), the inhibition in vivo at 1 mg/kg was determined as 97.8% and the inhibition in vivo at 3 mg/kg amounted to 98.6%. Further, the IC50 in assay [2] was determined as 0.24 nM.
`COC(=O)C[C@@H]1N=C(c2ccc(-c3ccc4oc(C(=O)N[C@H](C(=O)N5C[C@H](O)C[C@H]5C(=O)N[C@@H](C)c5ccc(-c6scnc6C)cc5)C(C)(C)C)nc4c3)cc2)c2c(sc(C)c2C)-n2c(C)nnc21` [Example 101, methyl [(6S)-4-{4-[2-({(2S)-1-[(2S,4R)-4-hydroxy-2-({(1S)-1-[4-(4-methyl-1,3-thiazol-5-yl)phenyl]ethyl}carbamoyl)pyrrolidin-1-yl]-3,3-dimethyl-1-oxobutan-2-yl}carbamoyl)-1,3-benzoxazol-5-yl]phenyl}-2,3,9-trimethyl-6H-thieno[3,2-f][1,2,4]triazolo[4,3-a][1,4]diazepin-6-yl]acetate] yielded a DC50 at BRD4 protein of 0.052 nM. Moreover, in assay [1] (setting [3]), the inhibition in vivo at 3 mg/kg turned out to be 98.2%. The IC50 in assay [2] is 0.059 nM.
Take `COC(=O)N[C@@H]1N=C(c2ccc(-c3ccc(OCC(=O)N[C@H](C(=O)N4C[C@H](O)C[C@H]4C(=O)N[C@@H](C)c4ccc(-c5scnc5C)cc4)C(C)(C)C)cc3)cc2)c2c(sc(C)c2C)-n2c(C)nnc21` [Example 31, methyl [(6R)-4-{4′-[2-({(2S)-1-[(2S,4R)-4-hydroxy-2-({(1S)-1-[4-(4-methyl-1,3-thiazol-5-yl)phenyl]ethyl}carbamoyl)pyrrolidin-1-yl]-3,3-dimethyl-1-oxobutan-2-yl}amino)-2-oxoethoxy][1,1′-biphenyl]-4-yl}-2,3,9-trimethyl-6H-thieno[3,2-f][1,2,4]triazolo[4,3-a][1,4]diazepin-6-yl]carbamate]: on BRD4 protein, the DC50 was found to be 0.062 nM. In addition, in assay [1] (dose 0.3 mg/kg/day, tail vein on days 1, 5, 9, 13, tumor weight on day 15, read-out: tumor growth inhibitory rate), the inhibition in vivo at 0.3 mg/kg was 95.6%. Besides, in assay [2], the IC50 stood at 0.039 nM.
Turning to `COC(=O)C[C@@H]1N=C(c2ccc(-c3ccc(C(=O)N[C@@H](C)C(=O)N[C@H](C(=O)N4C[C@H](O)C[C@H]4C(=O)N[C@@H](C)c4ccc(-c5scnc5C)cc4)C(C)(C)C)cc3)cc2)c2c(sc(C)c2C)-n2c(C)nnc21` [Example Compound 91, methyl [(6S)-4-(4′-{[(2S)-1-({(2S)-1-[(2S,4R)-4-hydroxy-2-({(1S)-1-[4-(4-methyl-1,3-thiazol-5-yl)phenyl]ethyl}carbamoyl)pyrrolidin-1-yl]-3,3-dimethyl-1-oxobutan-2-yl}amino)-1-oxopropan-2-yl]carbamoyl}[1,1′-biphenyl]-4-yl)-2,3,9-trimethyl-6H-thieno[3,2-f] [1,2,4]triazolo[4,3-a][1,4]diazepin-6-yl]acetate], the DC50 at BRD4 protein is 0.77 nM. The IC50 in assay [2] was determined as 0.54 nM.
